Laboratory results as given in patent US20240308990A1, “CRYSTAL FORM OF ENTRECTINIB AND PREPARATION METHOD THEREFOR” (QILU PHARMACEUTICAL CO., LTD., priority 2021, published 2024).
Values after ≈ are worked out from the molar mass of the structure shown. Where two headings read alike, the source gives them in different places.

Assays:
[1] = Solubility comparison of crystals; assay type: physicochemical; settings: for Solubility in 95% ethanol / Solubility in aqueous solution with pH = 1 / solubility at 20 min: 25° C., dissolution time 20 min; for Solubility compared with crystal form 2 and crystal form 4: 95% ethanol and aqueous solution with pH=1; for solubility at 20 min: thermodynamic from solid
Experimental: • Dissolution temperature: 25° C. • Dissolution time: 20 min

[2] = Preparation stability of crystal forms (mixing and slurrying, X-RPD); assay type: physicochemical; settings: for Converted crystal form: 0.1 g mixed with 0.1 g crystal form A of Example 2, slurried in acetone/water at room temperature for 10 h
Experimental: The mixing and slurring method was as follows: 0.1 g of each of the two crystal forms to be mixed was weighed and added into a single-necked flask. 2 mL of acetone and 1 mL of water were added. The mixture was stirred and slurried at room temperature for 10 h, filtered, and dried in air at room temperature to obtain crystals. The crystal forms were determined by X-RPD.

[3] = Crystal form stability test (affecting factors); assay type: physicochemical; settings: for Crystal form stability (in words): after a 10-day affecting factor test
Experimental: The experimental method was as follows: a ground sample (100 mg) was filled in a groove of a glass plate, the plane of the sample was made to the same level as the glass surface by using a glass slide, the sample was placed in a PANalytical X-ray powder diffractometer, and a 40 kV and 40 mA copper X-ray source was used, with a scanning range of 3-45° (2θ) and a scanning rate of 8°/min. The scanning error is typically ±0.2 degrees (2θ).

[4] = Chemical stability test (affecting factors, HPLC purity); assay type: physicochemical; settings: for Chemical stability (in words): after a 10-day affecting factor test
From the text: For the specific method for testing the stability, reference could be made to high performance liquid chromatography in General Chapter 0512, Chinese Pharmacopoeia, Volume IV, 2015 Edition.

[5] = Crushing, static electricity and fluidity test; assay type: physicochemical; settings: for Static electricity: reference forms: after crushing
From the text: (§1) The determination results are as follows.

[6] = Crystal microscopic morphology by scanning electron microscope; assay type: physicochemical
From the text: The experimental method was as follows: an appropriate amount of test sample was taken, uniformly spread on a conductive adhesive tape, sprayed with gold, and observed under an electron microscope.
as §1

[7] = background statement; cited from earlier work
[8] = High humidity condition 90% RH, 10 days
[9] = High temperature condition 60° C., 10 days
[10] = Light condition 5000 lux/h, 10 days

Solubility in 95% ethanol [1] | Solubility in aqueous solution with pH = 1 [1] | Converted crystal form [2] | Crystal form found ([3]; 0 day) | Crystal form found [3, 8] | Crystal form found [3, 9] | Crystal form found [3, 10] | Purity (%) ([4]; 0 day) | Purity (%) [4, 8] | Purity (%) [4, 9] | Purity (%) [4, 10] | Fluidity [5] | electron microscopy results of the crystal: length of larger crystals/particles [6] | electron microscopy results of the crystal: shape and size uniformity [6] | SMILES | Static electricity [5] | further results
 |  | Crystal form A |  |  |  |  |  |  |  |  | poor fluidity | more than about 1000 μm | Irregular bulk-shaped, non-uniform | CN1CCN(c2ccc(C(=O)Nc3n[nH]c4ccc(Cc5cc(F)cc(F)c5)cc34)c(NC3CCOCC3)c2)CC1 [Crystal form AZT-E of Reference Example 6] [entrectinib] | strong static electricity after crushing, and | Fluidity ([5]; listed as crystal form AZT-E): poor fluidity; Static electricity ([5]; listed as crystal form AZT-E): relatively strong static electricity after being crushed
 |  | Crystal form A |  |  |  |  |  |  |  |  | poor fluidity | more than about 1000 μm | Irregular bulk-shaped, non-uniform | CN1CCN(c2ccc(C(=O)Nc3n[nH]c4ccc(Cc5cc(F)cc(F)c5)cc34)c(NC3CCOCC3)c2)CC1 [Crystal form AZT-B of Reference Example 5] [entrectinib] | strong static electricity after crushing, and | Fluidity ([5]; listed as crystal form AZT-B): poor fluidity; Static electricity ([5]; listed as crystal form AZT-B): relatively strong static electricity after being crushed
 |  |  | form 1 | form 1 | form 2 | form 1 | 99.21% | 99.20% | 99.20% | 99.19% |  |  |  | CN1CCN(c2ccc(C(=O)Nc3n[nH]c4ccc(Cc5cc(F)cc(F)c5)cc34)c(NC3CCOCC3)c2)CC1 [Crystal form 1 of Reference Example 1, entrectinib] |  | Crystal form stability (in words) [7]: unstable and is easy to be converted into another crystal form; Crystal form stability (in words) ([3]; listed as crystal form 1 in Reference Example 1): unstable and shows crystal form conversion under a high temperature condition

The next lines start with the compound.

SMILES | Solubility in 95% ethanol [1] | Solubility in aqueous solution with pH = 1 [1] | Converted crystal form [2] | Crystal form found ([3]; 0 day) | Crystal form found [3, 8] | Crystal form found [3, 9] | Crystal form found [3, 10] | Purity (%) ([4]; 0 day) | Purity (%) [4, 8] | Purity (%) [4, 9] | Purity (%) [4, 10] | Fluidity [5] | electron microscopy results of the crystal: length of larger crystals/particles [6] | electron microscopy results of the crystal: shape and size uniformity [6] | Static electricity [5] | further results
CN1CCN(c2ccc(C(=O)Nc3n[nH]c4ccc(Cc5cc(F)cc(F)c5)cc34)c(NC3CCOCC3)c2)CC1 [Crystal form 4 of Reference Example 3, entrectinib] | 20.5 mg/mL (≈ 36.6 mM) | 18.8 mg/mL | Crystal form A | form 4 | form 4 | form 4 | form 4 | 99.29% | 99.29% | 99.28% | 99.28% |  |  |  |  | 
CN1CCN(c2ccc(C(=O)Nc3n[nH]c4ccc(Cc5cc(F)cc(F)c5)cc34)c(NC3CCOCC3)c2)CC1 [Crystal form AZT-A of Reference Example 4] [entrectinib] |  |  | Crystal form A |  |  |  |  |  |  |  |  | poor fluidity | about 700 μm | Irregular bulk-shaped, non-uniform | strong static electricity after crushing, and | Fluidity ([5]; listed as crystal form AZT-A): poor fluidity; Static electricity ([5]; listed as crystal form AZT-A): relatively strong static electricity after being crushed
CN1CCN(c2ccc(C(=O)Nc3n[nH]c4ccc(Cc5cc(F)cc(F)c5)cc34)c(NC3CCOCC3)c2)CC1 [Crystal form 2 of Reference Example 2, entrectinib] | 21.1 mg/mL (≈ 37.6 mM) | 19.1 mg/mL | Crystal form A | form 2 | form 2 | form 2 | form 2 | 99.34% | 99.33% | 99.34% | 99.33% | crushing, and poor fluidity | about 85 μm | Sheet-shaped, fragile, non-uniform | relatively strong static electricity after | Fluidity ([5]; listed as crystal form 2): poor fluidity; Static electricity ([5]; listed as crystal form 2): relatively strong static electricity after being crushed; Solubility (in words) [7]: poor solubility
CN1CCN(c2ccc(C(=O)Nc3n[nH]c4ccc(Cc5cc(F)cc(F)c5)cc34)c(NC3CCOCC3)c2)CC1 [Crystal form B of Example 5, N-[5-(3,5-difluorobenzyl)-1H-indazol-3-yl]-4-(4-methylpiperazin-1-yl)-2-[(tetrahydro-2H-pyran-4-yl)amino]benzamide] | 26.2 mg/mL (≈ 46.7 mM) | 21.0 mg/mL |  | form B | form B | form B | form B | 99.91% | 99.90% | 99.91% | 99.91% | good fluidity | ~10 μm | Rod-shaped, relatively uniform size, |  | Fluidity ([5]; listed as crystal form B): good fluidity; Solubility compared with crystal form 2 and crystal form 4 [1]: better solubility; Crystal form stability (in words) [3]: good crystal form stability; Chemical stability (in words) [4]: good chemical stability
CN1CCN(c2ccc(C(=O)Nc3n[nH]c4ccc(Cc5cc(F)cc(F)c5)cc34)c(NC3CCOCC3)c2)CC1 [Crystal form A of Example 2, N-[5-(3,5-difluorobenzyl)-1H-indazol-3-yl]-4-(4-methylpiperazin-1-yl)-2-[(tetrahydro-2H-pyran-4-yl)amino]benzamide] |  |  |  | form A | form A | form A | form A | 99.92% | 99.92% | 99.91% | 99.91% | good fluidity | ~20 μm | Rod-shaped, relatively uniform size, |  | Fluidity ([5]; listed as crystal form A): good fluidity; Solubility compared with crystal form 2 and crystal form 4 [1]: better solubility; solubility at 20 min ([1]; 95% ethanol, 25 °C, organic solvent or mixture, read-out: Solubility in 95% ethanol): 28.4 mg/mL (≈ 50.7 mM); solubility at 20 min ([1]; aqueous solution with pH 1, 25 °C, pH 1, simulated gastric fluid, read-out: Solubility in aqueous solution with pH = 1): 22.6 mg/mL (≈ 40.3 mM); Crystal conversion in acetone/water slurry (in words) ([2]; acetone/water system, room temperature, 10 h): will not be subjected to crystal conversion; Crystal form stability (in words) [3]: good crystal form stability; Chemical stability (in words) [4]: good chemical stability
